Assays:
[1] = test system: arrhythmia caused by introduction of calcium chloride; experiment: Antiarrhythmic activity on the model of arrhythmia caused by calcium chloride (antagonism towards calcium); format: in vivo, mice; settings: for Dose of calcium chloride causing arrhythmia: control 85.0; for Dose of calcium chloride causing heart arrest: control 100.0
Procedure: In experiments on white mice with a mass of 18-25 g narcotized with urethane an electrocardiogram was recorded in the second standard lead. A 2% solution of calcium chloride was introduced into the tail vein at a constant rate (0.01 ml for 2 seconds). The dose of calcium chloride causing arrhythmia and the dose causing heart arrest were determined. In experimental groups the test compounds were administered 20-40 minutes prior to the beginning of the experiment intraperitoneally.

white mice = experiment: Acute toxicity upon intraperitoneal administration to white mice; format: in vivo; settings: i.p.
Procedure: (§1) The acute toxicity of the compounds according to the present invention was studied on white mice of both sexes with a mass of 20-25 g. A saturated aqueous solution of the compounds or a suspension in Tween-80 was administered to the animals intraperitoneally. The observation over the animals was carried out for 14 days. The results obtained were processed following the Litchfield-Wilkoxon method. As it follows from the data shown in Table 5 hereinbelow, the studied compounds have a very low acute toxicity, thus providing a large spectrum of the therapeutic effect.

[2] = as above; format: in vivo; settings: mouse, in vivo, ip, 14 days observation, average values with confidential limits at P=0.05
Procedure: as §1

[3] = test system: hypertensive male rats of the Akamoto-Aoki line; experiment: Variation of arterial pressure upon intraperitoneal administration to hypertensive rats; format: in vivo
Procedure: The study of hypotensive properties of the compounds of this invention has been carried out of hypertensive male rats of the Akamoto-Aoki line aged 25-30 weeks. The animals were divided into groups (7-10 rats in each) and for 2 weeks before the beginning of the experiment they were subjected to an every-day training for adaptation to the unit for measurements of the arterial pressure. The systolic and diastolic arterial pressure were measured indirectly on the tail artery. The level of the arterial pressure prior to administration of the test compounds was measured by way of a triple determination thereof--2 days, one day and right before the administration of the preparation. The compounds were administered intraperitoneally in the form of a 2.5% aqueous solution or a 2.5% suspension in Twin-80 in the dose of 50 mg/kg. The measurement of the arterial pressure was effected 30 minutes, 1, 2, 3 and 4 hours and in some cases 24 hours after the administration of the preparation. For a number of compounds featuring a high efficiency, also determined was the dose causing reduction of the arterial pressure by 30% as compared with the starting level (ED30). The statistical processing of the data obtained was carried out using the Student certainty criterion.

[4] = test system: spontaneously hypertensive rats of the Akamoto-Aoki line; experiment: Systolic arterial pressure of spontaneously hypertensive rats upon a repeated peroral administration; format: in vivo
Procedure: Thus, after a four-days course of administration (once a day, per os) of the compounds according to the present invention an essential reduction of the arterial pressure in the test animals is observed which is not returned to the initial level even an expiration of four days after discontinuation of the preparation administration, whereas the hypotensive effect of nifedipine is manifested for only 8 hours.

[5] = 30 minutes, 50 mg/kg i.p. (nifedipine 1 mg/kg i.p.)
[6] = 1 hour, 50 mg/kg i.p. (nifedipine 1 mg/kg i.p.)
[7] = 2 hours, 50 mg/kg i.p. (nifedipine 1 mg/kg i.p.)
[8] = 4 hours, 50 mg/kg i.p. (nifedipine 1 mg/kg i.p.)
[9] = after four-days p.o. course, benzyl 40 mg/kg, allyl 50 mg/kg, nifedipine dose not given
[10] = p.o. once a day, benzyl 40 mg/kg, allyl 50 mg/kg, nifedipine dose not given
[11] = p.o., benzyl 40 mg/kg, allyl 50 mg/kg, nifedipine dose not given

Structure (SMILES) | Dose of calcium chloride causing arrhythmia ([1]; compound dose 5 mg/kg i.p.) | Dose of calcium chloride causing heart arrest ([1]; compound dose 5 mg/kg i.p.) | Dose of calcium chloride causing arrhythmia ([1]; compound dose 15 mg/kg i.p.) | Dose of calcium chloride causing heart arrest ([1]; compound dose 15 mg/kg i.p.) | Relative toxicity with respect to quinidine (LD50 / LD50 of quinidine) (white mice) | LD50 at 336 h [2] [mg/kg] | Average variation of the diastolic arterial pressure [3, 5] | Average variation of the systolic arterial pressure [3, 5] | Average variation of the diastolic arterial pressure [3, 6] | Average variation of the systolic arterial pressure [3, 6] | Average variation of the diastolic arterial pressure [3, 7] | Average variation of the systolic arterial pressure [3, 7] | Average variation of the diastolic arterial pressure [3, 8] | Average variation of the systolic arterial pressure [3, 8] | also measured
CC[N+](CC)(CC)NCCC(=O)[O-] [3-(2,2,2-Triethylhydrazinium)propionate, 3-(2,2,2-triethylhydrazinium)propionate monohydrate] | 100.0 | 120.0 | 127.0 | 142.5 | above 19.2 | > 3000 | – | – | – | – | – | – | – | – | –
C[N+](C)(CC[N+](C)(C)NCCC(=O)[O-])NCCC(=O)[O-] [3-(2,2-dimethyl-2-[1',1'-dimethyl-2'-carboxylatoethylhydrazin-1'-ium]-ethylhydrazinium)propionate dihydrate] | 96.0 | 112.0 | 108.5 | 120.0 | 13.4 | 2100 | – | – | – | – | – | – | – | – | –
C[N+](C)(Cc1cccc2ccccc12)NCCC(=O)[O-] [3-(2,2-dimethyl-2-naphthylmethylhydrazinium)propionate] | 108.0 | 132.5 | 126.7 | 143.0 | above 19.2 | > 3000 | 0 % of the initial | 0 % of the initial | -3 % of the initial | 0 % of the initial | -2 % of the initial | -3 % of the initial | -14 % of the initial | -5 % of the initial | Average variation of the diastolic arterial pressure ([3]; 24 hours, 50 mg/kg i.p.): -7 % of the initial; Average variation of the systolic arterial pressure ([3]; 24 hours, 50 mg/kg i.p.): -4 % of the initial
C#CC[N+](C)(C)NCCC(=O)[O-] [3-(2,2-dimethyl-2-propargylhydrazinium)propionate hydrogen bromide] | 110.4 | 125.0 | 120.0 | 135.0 | 10.5 | 1650 | -17 % of the initial | -6 % of the initial | -16 % of the initial | -10 % of the initial | -7 % of the initial | -10 % of the initial | -10 % of the initial | -6 % of the initial | –
CCC[N+](C)(C)NCCC(=O)[O-] [3-(2,2-dimethyl-2-propylhydrazinium)propionate] | 112.5 | 123.0 | 125.3 | 140.5 | 11.5 | 1800 | – | – | – | – | – | – | – | – | –
CC[N+](C)(CC)NCCC(=O)[O-] [3-(2-methyl-2,2-diethylhydrazinium)propionate monohydrate] | 105.5 | 118.6 | 120.0 | 136.0 | 9.3 | 1450 | +10 % of the initial | +4 % of the initial | -4 % of the initial | +2 % of the initial | +1 % of the initial | 0 % of the initial | -8 % of the initial | -6 % of the initial | –
COC(=O)C1=C(C)NC(C)=C(C(=O)OC)C1c1ccccc1[N+](=O)[O-] [Nifedipine, reference compound] | – | – | – | – | – | – | -8 % of the initial | -4 % of the initial | -14 % of the initial | -12 % of the initial | -21 % of the initial | -8 % of the initial | -31 % of the initial | -11 % of the initial | Systolic arterial pressure, 5th day [4, 9]: 178 mm Hg; Systolic arterial pressure, 8th day [4, 9]: 186 mm Hg; Systolic arterial pressure, 10th day [4, 9]: 182 mm Hg; Systolic arterial pressure, 2nd day after administration ([4]; p.o. once a day, allyl 50 mg/kg, nifedipine dose not given): 148 mm Hg; Systolic arterial pressure, 1st day after administration ([4]; p.o. once a day, benzyl 40 mg/kg (initial 195.8), allyl 50 mg/kg (initial 176.6), nifedipine dose not given (initial 184.0)): 150.0 mm Hg; Systolic arterial pressure, 2nd day before administration [4, 10]: 186 mm Hg; Systolic arterial pressure, 3rd day after administration [4, 10]: 153 mm Hg; Systolic arterial pressure, 4th day after administration [4, 10]: 146 mm Hg; Systolic arterial pressure, 4th day before administration [4, 10]: 180 mm Hg; Systolic arterial pressure, 3rd day before administration ([4]; p.o. once a day, benzyl 40 mg/kg, nifedipine dose not given): 183 mm Hg; Percent in parentheses (change of systolic pressure from initial), 2nd day after administration ([4]; p.o., allyl 50 mg/kg, nifedipine dose not given): 20%; Percent in parentheses (change of systolic pressure from initial), 1st day after administration [4, 11]: 18%; Percent in parentheses (change of systolic pressure from initial), 3rd day after administration [4, 11]: 17%; Percent in parentheses (change of systolic pressure from initial), 4th day after administration [4, 11]: 21%; Percent in parentheses (change of systolic pressure from initial), 4th day before administration [4, 11]: 2%; Percent in parentheses (change of systolic pressure from initial), 5th day [4, 11]: 3%; duration of hypotensive effect ([4]; repeated p.o.): 8 h
C=C[C@H]1C[N@@]2CC[C@H]1C[C@@H]2[C@@H](O)c1ccnc2ccc(OC)cc12 [Quinidine, reference compound] | – | – | – | – | 1 | 156 | – | – | – | – | – | – | – | – | Dose of calcium chloride causing arrhythmia ([1]; compound dose 3 mg/kg i.p.): 126.9; Dose of calcium chloride causing heart arrest ([1]; compound dose 3 mg/kg i.p.): 136.0; Dose of calcium chloride causing arrhythmia ([1]; compound dose 10 mg/kg i.p.): 120.8; Dose of calcium chloride causing heart arrest ([1]; compound dose 10 mg/kg i.p.): 133.5

— patent US4704403A, “3-(2,2,2-trisubstituted hydrazinium) propionates” (priority 1983, dated 1987)
